# Reference: patent US10336761B2, “TGFβ receptor antagonist” (BRISTOL-MYERS SQUIBB COMPANY, priority 2015, dated 2019)
# Target: HIS-TGFβR1 T204D (Homo sapiens (Human), UniProt P36897, T204D)
# Assay: HTRF probe-displacement assay, HIS-TGFβR1 T204D
# Type: binding
# Settings: 1 hour at room temperature
# HIS-TGFβR1 T204D, sequence (P36897 34-503 T204D): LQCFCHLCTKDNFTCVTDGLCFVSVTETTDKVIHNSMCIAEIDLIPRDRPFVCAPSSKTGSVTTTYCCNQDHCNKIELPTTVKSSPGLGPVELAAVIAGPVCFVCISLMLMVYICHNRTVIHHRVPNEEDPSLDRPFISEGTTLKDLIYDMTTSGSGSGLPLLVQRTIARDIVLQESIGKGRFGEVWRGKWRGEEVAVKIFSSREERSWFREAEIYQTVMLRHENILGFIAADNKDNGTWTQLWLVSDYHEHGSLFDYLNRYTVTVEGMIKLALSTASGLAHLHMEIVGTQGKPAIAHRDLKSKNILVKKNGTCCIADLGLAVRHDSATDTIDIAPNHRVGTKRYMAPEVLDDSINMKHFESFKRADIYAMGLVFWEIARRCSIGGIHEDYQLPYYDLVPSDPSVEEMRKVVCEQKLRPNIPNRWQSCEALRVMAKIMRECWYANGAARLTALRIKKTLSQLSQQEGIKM
row,IC50,SMILES
1,1.6 nM,"Cc1cccc(-c2nc(Nc3ccncc3Cl)c3cccn3n2)n1 [Example 59, 3-chloro-N-[2-(6-methylpyridin-2-yl)pyrrolo[2,1-f][1,2,4]triazin-4-yl]pyridin-4-amine]"
2,6600 nM,"COc1cccc(-c2nc(Nc3ccnc(Cl)c3)c3cccn3n2)n1 [Example 93, 2-chloro-N-[2-(6-methoxypyridin-2-yl)pyrrolo[2,1-f][1,2,4]triazin-4-yl]pyridin-4-amine]"
3,47 nM,"CC(=O)Nc1cc(Nc2nc(-c3ccc(C(F)(F)F)cn3)nn3cccc23)ccn1 [Example 332, N-[4-({2-[5-(trifluoromethyl)pyridin-2-yl]pyrrolo[2,1-f][1,2,4]triazin-4-yl}amino)pyridin-2-yl]acetamide]"
4,9.1 nM,"COc1cccc(-c2nc(Nc3ccncc3C(N)=O)c3cccn3n2)n1 [Example 98, 4-{[2-(6-methoxypyridin-2-yl)pyrrolo[2,1-f][1,2,4]triazin-4-yl]amino}pyridine-3-carboxamide]"
5,4.4 nM,"Fc1cnccc1Nc1nc(-c2ccccn2)nn2ccc(CNCCN3CCCCC3)c12 [Example 284, 3-fluoro-N-[5-({[2-(piperidin-1-yl)ethyl]amino}methyl)-2-(pyridin-2-yl)pyrrolo[2,1-f][1,2,4]triazin-4-yl]pyridin-4-amine]"
6,0.52 nM,"CC(O)CCNCc1ccn2nc(-c3ccccn3)nc(Nc3ccncc3F)c12 (stereo not drawn) [Example 274, 4-[({4-[(3-fluoropyridin-4-yl)amino]-2-(pyridin-2-yl)pyrrolo[2,1-f][1,2,4]triazin-5-yl}methyl)amino]butan-2-ol]"
7,47 nM,O=C(NCCCN1CCCC1)c1cnccc1Nc1nc(-c2cccc(C(F)(F)F)n2)nn2cccc12 [Example 37]
8,0.93 nM,"O[C@H]1CCN(Cc2ccn3nc(-c4ccccn4)nc(Nc4ccncc4F)c23)C1 [Example 232, (3S)-1-({4-[(3-fluoropyridin-4-yl)amino]-2-(pyridin-2-yl)pyrrolo[2,1-f][1,2,4]triazin-5-yl}methyl)pyrrolidin-3-ol]"
9,0.58 nM,"CC(C)(NCc1ccn2nc(-c3ccccn3)nc(Nc3ccncc3F)c12)c1ccccn1 [Example 301, 3-fluoro-N-[2-(pyridin-2-yl)-5-({[2-(pyridin-2-yl)propan-2-yl]amino}methyl)pyrrolo[2,1-f][1,2,4]triazin-4-yl]pyridin-4-amine]"
10,1.2 nM,"CC(=O)Nc1cc(Nc2nc(-c3ccccn3)nn3ccc(CN4CCN(CCO)CC4)c23)ccn1 [Example 250, N-{4-[(5-{[4-(2-hydroxyethyl)piperazin-1-yl]methyl}-2-(pyridin-2-yl)pyrrolo[2,1-f][1,2,4]triazin-4-yl)amino]pyridin-2-yl}acetamide]"
11,3.3 nM,"O=C(CCC(F)(F)F)Nc1cc(Nc2nc(-c3cccc(C(F)(F)F)n3)nn3cccc23)ccn1 [Example 337, 4,4,4-trifluoro-N-[4-({2-[6-(trifluoromethyl)pyridin-2-yl]pyrrolo[2,1-f][1,2,4]triazin-4-yl}amino)pyridin-2-yl]butanamide]"
12,0.72 nM,"Fc1cnccc1Nc1nc(-c2nc(C(F)(F)F)cs2)nn2cccc12 [Example 17, N-(3-fluoropyridin-4-yl)-2-(4-(trifluoromethyl)thiazol-2-yl)pyrrolo[2,1-f][1,2,4]triazin-4-amine]"
13,91 nM,"CC(C)(C)CC(=O)Nc1cc(Nc2nc(-c3cccc(C(F)(F)F)n3)nn3cccc23)ccn1 [Example 321, 3,3-dimethyl-N-[4-({2-[6-(trifluoromethyl)pyridin-2-yl]pyrrolo[2,1-f][1,2,4]triazin-4-yl}amino)pyridin-2-yl]butanamide]"
14,3.7 nM,"Fc1cnccc1Nc1nc(-c2cccc(C(F)(F)F)n2)nn2cccc12 [Example 84, 3-fluoro-N-{2-[6-(trifluoromethyl)pyridin-2-yl]pyrrolo[2,1-f][1,2,4]triazin-4-yl}pyridin-4-amine]"
15,1.9 nM,"Cc1nc(-c2nc(Nc3ccncc3)c3cccn3n2)ccc1F [Example 69, N-[2-(5-fluoro-6-methylpyridin-2-yl)pyrrolo[2,1-f][1,2,4]triazin-4-yl]pyridin-4-amine]"
16,68 nM,"Cc1cncc(-c2nc(Nc3ccncc3Cl)c3cccn3n2)n1 [Example 6, 3-chloro-N-[2-(6-methylpyrazin-2-yl)pyrrolo[2,1-f][1,2,4]triazin-4-yl]pyridin-4-amine]"
17,1.2 nM,"OCCN1CCN(Cc2ccn3nc(-c4cccc(C(F)F)n4)nc(Nc4ccncc4F)c23)CC1 [Example 253, 2-[4-({2-[6-(difluoromethyl)pyridin-2-yl]-4-[(3-fluoropyridin-4-yl)amino]pyrrolo[2,1-f][1,2,4]triazin-5-yl}methyl)piperazin-1-yl]ethan-1-ol]"
18,3 nM,"COc1cccc(-c2nc(Nc3ccncc3F)c3c(CCO)ccn3n2)n1 [Example 46, 2-{4-[(3-fluoropyridin-4-yl)amino]-2-(6-methoxypyridin-2-yl)pyrrolo[2,1-f][1,2,4]triazin-5-yl}ethan-1-ol]"

row,IC50,SMILES
1,0.79 nM,"Fc1ccc(-c2nc(Nc3ccncc3F)c3cccn3n2)nc1 [Example 65, 3-fluoro-N-[2-(5-fluoropyridin-2-yl)pyrrolo[2,1-f][1,2,4]triazin-4-yl]pyridin-4-amine]"
2,1.8 nM,"COCCC(=O)Nc1cc(Nc2nc(-c3cccc(C(F)(F)F)n3)nn3cccc23)ccn1 [Example 343, 3-methoxy-N-[4-({2-[6-(trifluoromethyl)pyridin-2-yl]pyrrolo[2,1-f][1,2,4]triazin-4-yl}amino)pyridin-2-yl]propanamide]"
3,650 nM,"COc1cccc(-c2nc(Nc3ccnc(F)c3)c3c(C)ccn3n2)n1 [Example 96, 2-fluoro-N-[2-(6-methoxypyridin-2-yl)-5-methylpyrrolo[2,1-f][1,2,4]triazin-4-yl]pyridin-4-amine]"
4,5.1 nM,"O=C(CC(F)(F)F)Nc1cc(Nc2nc(-c3cccc(C(F)(F)F)n3)nn3cccc23)ccn1 [Example 344, 3,3,3-trifluoro-N-[4-({2-[6-(trifluoromethyl)pyridin-2-yl]pyrrolo[2,1-f][1,2,4]triazin-4-yl}amino)pyridin-2-yl]propanamide]"
5,35 nM,"Cc1cccc(-c2nc(Nc3ccncc3F)c3ccc(C(=O)O)n3n2)n1 [Example 52, 4-[(3-fluoropyridin-4-yl)amino]-2-(6-methylpyridin-2-yl)pyrrolo[2,1-f][1,2,4]triazine-7-carboxylic acid]"
6,3.2 nM,"Fc1cnccc1Nc1nc(-c2ncccc2F)nn2cccc12 [Example 260, 3-fluoro-N-[2-(3-fluoropyridin-2-yl)pyrrolo[2,1-f][1,2,4]triazin-4-yl]pyridin-4-amine]"
7,56 nM,"COc1cccc(-c2nc(Nc3ccncc3F)c3cc(NS(C)(=O)=O)cn3n2)n1 [Example 22, N-{4-[(3-fluoropyridin-4-yl)amino]-2-(6-methoxypyridin-2-yl)pyrrolo[2,1-f][1,2,4]triazin-6-yl}methanesulfonamide]"
8,100 nM,"FC(F)(F)c1cccc(-c2nc(Nc3ccnc(-c4cc[nH]n4)c3)c3cccn3n2)n1 [Example 230, 2-(1H-pyrazol-3-yl)-N-{2-[6-(trifluoromethyl)pyridin-2-yl]pyrrolo[2,1-f][1,2,4]triazin-4-yl}pyridin-4-amine]"
9,5.1 nM,"CC(=O)Nc1cc(Nc2nc(-c3cccc(C(F)F)n3)nn3cccc23)c(F)cn1 [Example 225, N-[4-({2-[6-(difluoromethyl)pyridin-2-yl]pyrrolo[2,1-f][1,2,4]triazin-4-yl}amino)-5-fluoropyridin-2-yl]acetamide]"
10,6.7 nM,"Fc1cnccc1Nc1nc(-c2ccccn2)nn2ccc(CNCC3CCCCN3)c12 (stereo not drawn) [Example 265, 3-fluoro-N-(5-{[(piperidin-2-ylmethyl)amino]methyl}-2-(pyridin-2-yl)pyrrolo[2,1-f][1,2,4]triazin-4-yl)pyridin-4-amine]"
11,0.49 nM,"Cc1cccc(-c2nc(Nc3ccncc3F)c3c(CN4CC[C@H](O)C4)ccn3n2)n1 [Example 252, (3S)-1-({4-[(3-fluoropyridin-4-yl)amino]-2-(6-methylpyridin-2-yl)pyrrolo[2,1-f][1,2,4]triazin-5-yl}methyl)pyrrolidin-3-ol]"
12,0.59 nM,"O[C@H]1CCN(Cc2ccn3nc(-c4cccc(C(F)F)n4)nc(Nc4ccncc4F)c23)C1 [Example 251, (3S)-1-({2-[6-(difluoromethyl)pyridin-2-yl]-4-[(3-fluoropyridin-4-yl)amino]pyrrolo[2,1-f][1,2,4]triazin-5-yl}methyl)pyrrolidin-3-ol]"
13,750 nM,"O=C(c1cnccc1Nc1nc(-c2cccc(C(F)F)n2)nn2cccc12)N1CCC(F)(F)CC1 [Example 203, N-{2-[6-(difluoromethyl)pyridin-2-yl]pyrrolo[2,1-f][1,2,4]triazin-4-yl}-3-(4,4-difluoropiperidine-1-carbonyl)pyridin-4-amine]"
14,360 nM,"Cn1nccc1-c1nc(Nc2ccncc2Cl)c2cccn2n1 [Example 81, 3-chloro-N-[2-(1-methyl-1H-pyrazol-5-yl)pyrrolo[2,1-f][1,2,4]triazin-4-yl]pyridin-4-amine]"
15,12 nM,"CN1CCC(N(C)Cc2ccn3nc(-c4ccccn4)nc(Nc4ccncc4F)c23)CC1 [Example 279, 3-fluoro-N-(5-{[methyl(1-methylpiperidin-4-yl)amino]methyl}-2-(pyridin-2-yl)pyrrolo[2,1-f][1,2,4]triazin-4-yl)pyridin-4-amine]"
16,63 nM,"COc1cccc(-c2nc(Nc3ccncc3F)c3c(CNCCN4CCCC4)ccn3n2)n1 [Example 119, 3-fluoro-N-[2-(6-methoxypyridin-2-yl)-5-({[2-(pyrrolidin-1-yl)ethyl]amino}methyl)pyrrolo[2,1-f][1,2,4]triazin-4-yl]pyridin-4-amine]"
17,1.2 nM,"Fc1cnccc1Nc1nc(-c2ccccn2)nn2ccc(CN[C@H]3CCN(Cc4ccccc4)C3)c12 [Example 285, N-[5-({[(3S)-1-benzylpyrrolidin-3-yl]amino}methyl)-2-(pyridin-2-yl)pyrrolo[2,1-f][1,2,4]triazin-4-yl]-3-fluoropyridin-4-amine]"

row,SMILES,IC50
1,"CC(C)(C)OCCNC(=O)c1cnccc1Nc1nc(-c2cccc(C(F)F)n2)nn2cccc12 [Example 173, N-[2-(tert-butoxy)ethyl]-4-({2-[6-(difluoromethyl)pyridin-2-yl]pyrrolo[2,1-f][1,2,4]triazin-4-yl}amino)pyridine-3-carboxamide]",48 nM
